Reference: paper PMC5325326, “Evaluation of the intestinal permeability of rosemary (Rosmarinus officinalis L.) extract polyphenols and terpenoids in Caco-2 cell monolayers” (PLoS ONE, 2017)
“Also recorded” adds a separate entry of the source. Like-named read-outs stand apart in the source and are kept apart here.

Legend:
[1] = Caco-2 monolayer transport study (apparent permeability, Papp) of rosemary extract compounds; conditions: human, Caco-2, pH 7.4
[2] = test system: Caco-2 cell monolayers; test: as above; conditions: for Papp, Encapsulated RE, AB direction: liposomal RE formulation; for Papp, Encapsulated RE, AB direction / Papp, Non encapsulated RE, AB direction: apical to basolateral; for retention by Caco-2 cells: free formulation, AB direction
[3] = BCS classification based on experimental Papp (AB direction, free formulation); type: in vitro ADME; design: dose or concentration left out as unconfirmed; conditions: human, Caco-2, pH 7.4, versus metoprolol Papp, Table 2, read-out: Permeability Based on Papp
Text: The Biopharmaceutical Classification System (BCS) was developed by Amidon and coworkers twenty years ago to classify drugs for a waiver of in vivo bioequivalence studies. This system classifies drugs into four categories based on their intestinal permeability and solubility (see S1 Table), and currently this system is accepted worldwide by researchers and governmental institutions such as the FDA and EMA. In addition to its regulatory use, BCS is a tool for drug development because it helps identify the limiting factors in the absorption process. In this work, the 24 compounds identified from RE were classified individually according to this system to obtain relevant information regarding their absorbed oral fraction. For this purpose, only data derived from the free extract permeation were used.
Log P values were obtained for all compounds using ChemDraw software® Ultra version 8.0 (CambridgeSoft Corp. USA) and are shown in Table 2. The Log P value is a widely accepted parameter to express the lipophilicities of biological drugs in medicinal and agro chemistry. According to BCS, compounds are divided into high permeability (Class I: high permeability, high solubility; Class II: high permeability, low solubility) or low permeability (Class III: low permeability, high solubility; Class IV: low permeability, low solubility) categories by comparing with the Log P value (2.18) of the standard metoprolol, which is the reference compound employed for this purpose. Based on this parameter, the permeabilities of all compounds derived from RE were tabulated as high or low (Table 2). Moreover, the Papp value of this reference drug (0.6 x 10^−4 cm/s) was also available, which allowed us to establish another classification for the permeabilities of RE compounds based on this parameter, using the Papp values of the compounds obtained in the AB direction only for the free formulations (Table 2). Therefore, the Log P and Papp values were used in Table 2 to classify compounds as […] drugs for permeability, providing two different classifications based on the partition coefficient and the intestinal permeability.
As no information was available regarding the maximum doses of these compounds, two putative scenarios were selected to simulate a high-activity drug, dosed as a 10-mg tablet, or a low-activity drug, dosed as a 100-mg tablet. […] In the present study, all compounds were classified for BCS by considering the experimental data for absorption (Papp) and the calculated Log P value (Table 2). According to the Log P value, most compounds belong to the high-permeability classes (I and II), with class II being the most numerous (Fig 2A), except in the case of the flavonoids. However, when experimental Papp values were used for classification, the results changed dramatically, and low-permeability classes (III and IV) became the most abundant (Fig 2B). This classification was nearly independent of the solubility scenario and considered dose (compare Fig 2 and S1 Fig). […] Most flavones in RE were classified as class III (low permeability, high solubility) and class IV (low permeability, low solubility) with the exception of apigenin, for which no experimental Papp could be determined and, consequently, no BCS classification was proposed. […] The phenylpropanoid derivatives shogaol and shogaol isomer (gingerol-like compounds) were classified as class II (high permeability, low solubility), which is in agreement with the presence of a long saturated carbon chain in their structure that confers a certain degree of hydrophobicity to these compounds.

[4] = in vitro; conditions: human, Caco-2, pH 7.4
[5] = test system: Caco-2 cell monolayers
[6] = test system: Caco-2 cell monolayers; design: method as in printed; conditions: reference for BCS permeability class; stated as available, ref not given; cited from earlier work
[7] = 120 min, 37°C, mean of six replicates
[8] = free RE 200 μg/mL, 120 min, 37°C, mean of six replicates

In the case of `COc1c(C(C)C)cc2c(c1O)[C@@]1(C(=O)O)CCCC(C)(C)[C@@H]1CC2` [12-Methoxycarnosic acid], the Papp A→B at 120 min, 200 μg/mL [1] is reported as 18.5 ×10⁻⁶ cm/s, the Papp B→A at 120 min, 200 μg/mL [1] is reported as 27.7 ×10⁻⁶ cm/s and the “Papp, Encapsulated RE, AB direction” value [2, 7] is reported as “no absorption”. For the same compound, the Papp at 120 min [3] was less than 60 ×10⁻⁶ cm/s.
Work on `C=C(C)[C@@H]1CC[C@]2(C(=O)O)CC[C@]3(C)[C@H](CC[C@@H]4[C@@]5(C)CC[C@H](O)[C@@](C)(CO)[C@@H]5CC[C@]43C)[C@@H]12` [Anemosapogenin] yielded a Papp A→B at 120 min, 200 μg/mL [1] of 3.27 ×10⁻⁶ cm/s, a Papp B→A at 120 min, 200 μg/mL [1] of 6.17 ×10⁻⁶ cm/s and a Papp at 120 min [3] of less than 60 ×10⁻⁶ cm/s.
With `CC1(C)CC[C@]2(C(=O)O)CC[C@]3(C)C(=CC[C@@H]4[C@@]5(C)C[C@H](O)[C@H](O)C(C)(C)[C@@H]5CC[C@]43C)[C@@H]2C1` [Augustic acid] the Papp A→B at 120 min, 200 μg/mL [1] was 7.35 ×10⁻⁶ cm/s, the Papp B→A at 120 min, 200 μg/mL [1] was 7.93 ×10⁻⁶ cm/s and the Papp at 120 min [3] was less than 60 ×10⁻⁶ cm/s.
Work on `CC1CCC2(C(=O)O)CCC3(C)C(=CCC4C5(C)CCC(O)C(C)(C)C5CCC43C)C2C1(C)O` (centres unmarked) [Benthamic acid] yielded a Papp A→B at 120 min, 200 μg/mL [1] of 5.2 ×10⁻⁶ cm/s, a Papp B→A at 120 min, 200 μg/mL [1] of 7.03 ×10⁻⁶ cm/s and a Papp at 120 min [3] of less than 60 ×10⁻⁶ cm/s.
For `C=C(C)[C@@H]1CC[C@]2(C(=O)O)CC[C@]3(C)[C@H](CC[C@@H]4[C@@]5(C)CC[C@H](O)C(C)(C)[C@@H]5CC[C@]43C)[C@@H]12` [Betulinic acid], the Papp B→A at 120 min, 200 μg/mL [1] was 6.3 ×10⁻⁶ cm/s, the “detection in donor chamber, cells and receptor chamber” value ([2]; encapsulated formulation) was “detected both in the donor chamber and also inside the cells but was not detected in the receptor chamber” and the “Papp, Non encapsulated RE, AB direction” value [2, 8] was “not absorbed”. The “retention by Caco-2 cells” value [2] was “partly retained by the Caco-2 cells”.
In the case of `CC(C)c1cc2c(c(O)c1O)[C@@]1(C(=O)O)CCCC(C)(C)[C@@H]1CC2` [Carnosic acid], the Papp A→B at 120 min, 200 μg/mL [1] is reported as 127 ×10⁻⁶ cm/s, the Papp B→A at 120 min, 200 μg/mL [1] is reported as 90.4 ×10⁻⁶ cm/s and the “Papp, Encapsulated RE, AB direction” value [2, 7] is reported as “no absorption”.
For `CC(C)c1cc2c(c(O)c1O)[C@@]13CCCC(C)(C)[C@@H]1C[C@@H]2OC3=O` [Carnosol], the Papp A→B at 120 min [1] was 0.0403 ×10⁻⁶ cm/s, the Papp A→B at 120 min, 200 μg/mL [1] was 14.6 ×10⁻⁶ cm/s and the Papp B→A at 120 min [1] was 0.261 ×10⁻⁶ cm/s. For the same compound, the Papp B→A at 120 min, 200 μg/mL [1] was 13.5 ×10⁻⁶ cm/s and the Papp at 120 min [3] was less than 60 ×10⁻⁶ cm/s.
`COc1cc2oc(-c3ccc(O)cc3)cc(=O)c2c(O)c1OC` [Cirsimaritin] showed a Papp A→B at 120 min, 200 μg/mL [1] of 33.3 ×10⁻⁶ cm/s, a Papp B→A at 120 min, 200 μg/mL [1] of 30.7 ×10⁻⁶ cm/s and a Papp at 120 min [3] of less than 60 ×10⁻⁶ cm/s.
For `COc1ccc(-c2cc(=O)c3c(O)cc(O)cc3o2)cc1O` [Diosmetin], the Papp A→B at 120 min, 200 μg/mL [1] was 2.5 ×10⁻⁶ cm/s, the Papp B→A at 120 min, 200 μg/mL [1] was 4.13 ×10⁻⁶ cm/s and the Papp at 120 min [3] was less than 60 ×10⁻⁶ cm/s.
`CC(C)c1cc2c(c(O)c1O)[C@@]13CCCC(C)(C)[C@@H]1[C@H](O)[C@@H]2OC3=O` [Epiisorosmanol] gave a Papp A→B at 120 min [1] of 8.18 ×10⁻⁶ cm/s, a Papp A→B at 120 min, 200 μg/mL [1] of 104 ×10⁻⁶ cm/s and a Papp B→A at 120 min [1] of 13 ×10⁻⁶ cm/s. The Papp B→A at 120 min, 200 μg/mL [1] was 9.23 ×10⁻⁶ cm/s and the Papp at 120 min [3] was greater than 60 ×10⁻⁶ cm/s.
`CC(C)c1cc2c(c(O)c1O)C13CCCC(C)(C)C1C(OC3=O)C2O` (centres unmarked) [Epirosmanol] showed a Papp A→B at 120 min [1] of 1.92 ×10⁻⁶ cm/s, a Papp A→B at 120 min, 200 μg/mL [1] of 55.1 ×10⁻⁶ cm/s and a Papp B→A at 120 min [1] of 2.63 ×10⁻⁶ cm/s. For the same compound, the Papp B→A at 120 min, 200 μg/mL [1] was 12.1 ×10⁻⁶ cm/s and the Papp at 120 min [3] was less than 60 ×10⁻⁶ cm/s.
Compound `COc1cc(O)c2c(=O)cc(-c3ccc(O)cc3)oc2c1` [Genkwanin] has a Papp A→B at 120 min, 200 μg/mL [1] of 14.9 ×10⁻⁶ cm/s, a Papp B→A at 120 min, 200 μg/mL [1] of 16.2 ×10⁻⁶ cm/s and a Papp at 120 min [3] of less than 60 ×10⁻⁶ cm/s.
In the case of `CC(C)c1cc2c(cc1O)[C@@]1(C)CCC(=O)C(C)(C)[C@@H]1CC2` [Hinokione], the Papp B→A at 120 min, 200 μg/mL [4] is reported as 13.6 ×10⁻⁶ cm/s, the “Papp, Encapsulated RE, AB direction” value [5] is reported as “no absorption” and the “Papp, Non encapsulated RE, AB direction” value [5] is reported as “no absorption”.
`COc1c(O)cc2oc(-c3ccc(O)cc3)cc(=O)c2c1O` [Hispidulin] showed a Papp A→B at 120 min, 200 μg/mL [1] of 9.05 ×10⁻⁶ cm/s, a Papp B→A at 120 min, 200 μg/mL [1] of 13.1 ×10⁻⁶ cm/s and a Papp at 120 min [3] of less than 60 ×10⁻⁶ cm/s.
In the case of `C=C1CCC2(C(=O)O)CCC3(C)C(=CCC4C5(C)CCC(O)C(C)(C)C5CCC43C)C2C1C` (centres unmarked) [Micromeric acid], the Papp A→B at 120 min, 200 μg/mL [1] is reported as 7.2 ×10⁻⁶ cm/s, the Papp B→A at 120 min, 200 μg/mL [1] is reported as 2.45 ×10⁻⁶ cm/s and the Papp at 120 min [3] is reported as less than 60 ×10⁻⁶ cm/s.
With `Cc1cc2c(cc(O)c1=O)[C@@]13CCCC(C)(C)[C@@H]1C[C@@H]2OC3` [Miltipolone] the Papp A→B at 120 min, 200 μg/mL [1] was 17.6 ×10⁻⁶ cm/s, the Papp B→A at 120 min [1] was 0.168 ×10⁻⁶ cm/s and the “Papp, Non encapsulated RE, BA direction” value ([2]; free RE 200 μg/mL, basolateral to apical, 120 min, 37°C, mean of six replicates) was “not absorbed; also recorded: no absorption”. The “Papp, Encapsulated RE, AB direction” value [2, 7] was “no absorption” and the Papp at 120 min [3] was less than 60 ×10⁻⁶ cm/s.
Compound `CC(C)c1cc(C=O)c2c(c1O)OC(=O)[C@@]21CCCC(C)(C)[C@@H]1C=O` [Rosmadial] has a Papp A→B at 120 min [1] of 2.67 ×10⁻⁶ cm/s, a Papp A→B at 120 min, 200 μg/mL [1] of 19 ×10⁻⁶ cm/s and a Papp B→A at 120 min [1] of 12.4 ×10⁻⁶ cm/s. The Papp B→A at 120 min, 200 μg/mL [1] was 15.9 ×10⁻⁶ cm/s and the Papp at 120 min [3] was less than 60 ×10⁻⁶ cm/s.
`CC(C)c1cc2c(c(O)c1O)[C@@]13CCCC(C)(C)[C@@H]1[C@H](OC3=O)[C@H]2O` [Rosmanol] gave a Papp A→B at 120 min [1] of 29.1 ×10⁻⁶ cm/s, a Papp A→B at 120 min, 200 μg/mL [1] of 45.9 ×10⁻⁶ cm/s and a Papp B→A at 120 min [1] of 33.3 ×10⁻⁶ cm/s. For the same compound, the Papp B→A at 120 min, 200 μg/mL [1] was 44.2 ×10⁻⁶ cm/s and the Papp at 120 min [3] was less than 60 ×10⁻⁶ cm/s.
In the case of `CC(C)c1cc2c(c(O)c1O)C(=O)C1CCCC(C)(C)C1CC2` (centres unmarked) [Rosmaridiphenol], the Papp A→B at 120 min, 200 μg/mL [1] is reported as 2.43 ×10⁻⁶ cm/s, the Papp B→A at 120 min, 200 μg/mL [1] is reported as 2.68 ×10⁻⁶ cm/s and the “Papp, Non encapsulated RE, AB direction” value [2, 8] is reported as “E-06 range”. For the same compound, the “Papp, Encapsulated RE, AB direction” value [2, 7] was “no absorption” and the Papp at 120 min [3] was less than 60 ×10⁻⁶ cm/s.
For `C[C@H]1[C@H](C)CC[C@]2(C(=O)O)CC[C@]3(C)C(=CC[C@@H]4[C@@]5(C)CC[C@H](O)C(C)(C)[C@@H]5CC[C@]43C)[C@H]12` [Ursolic acid], the Papp B→A at 120 min, 200 μg/mL [1] was 7.2 ×10⁻⁶ cm/s and the “retention by Caco-2 cells” value [2] was “partly retained by the Caco-2 cells”.
In the case of `COCCc1ccc(OCC(O)CNC(C)C)cc1` (centres unmarked) [metoprolol], the “Papp value of the reference drug” value [6] is listed as 60 ×10⁻⁶ cm/s.
In the case of (9)-Shogaol [[9]-Shogaol], the “retention by Caco-2 cells / transport to the receptor chamber” value ([2]; all samples, amounts below LOQ detected in cytoplasmic fractions) is reported as “partly retained by Caco-2 cells without any transport to the receptor chamber”.
